Patent US20090036821A1 (priority 2005, published 2009)
Structures can show the parent of a compound that is named as a salt. Where two headings read alike, the source gives them in different places.

Experiments:
[1] = for Iontophoretic flux of nicotine versus passive delivery of nicotine base: 500 mM citrate buffer with 50 mM NaCl, current terminated after 4 hours, FIG. 3; for Flux of nicotine after termination of current: current terminated at 4 hrs, 50 mM HEPES, FIG. 6; for Lagtime / Flux: iontophoresis (ITP), donor pH 5.5, 50 mM HEPES; for Flux: steady state when current is present, 0.5 mA/sq.cm; for Flux of nicotine, iontophoresis of salt versus passive permeation of nicotine base / Lagtime during iontophoresis versus passive permeation of nicotine base: iontophoresis at pH 5.5 versus passive base pH 8, FIG. 8
Procedure: The following methodology was employed in the examples described herein: Dermatomed human skin stored at −80° C. was thawed just prior to use. Each permeation experiment consisted of four replicates. The skin for each replicate was obtained from a different donor so that the variation was randomized. Skin was mounted on Valia-Chien (horizontal) diffusion cells for these in vitro permeation studies, with stratum corneum side facing the donor side. The receptor compartment was filled with pH 7.4 phosphate buffer (50 mM). […] Prior to use, both donor and receptor solutions were degassed by helium sparging. The temperature of the water bath was set to 32° C. Both donor and receptor compartments were continuously stirred. For iontophoresis, silver wire was used as the anode in the donor compartment and silver/silver chloride as cathode in the receptor compartment. A current of 0.5 mA/sq.cm was applied for 4 hours. Samples taken periodically from the receptor compartment were analyzed by HPLC assay. An Xterra RP18 column was used and the detection wavelength was 261 nm. The mobile phase was 85:15 buffer:acetonitrile, pumped at 1 mL/min and retention time was about 3 minutes.
Iontophoretic current was terminated after 4 hours.
Iontophoretic delivery of nicotinium dihydrochloride salt was also studied in 50 mM HEPES buffer, adjusted to pH 5.5 with NaOH.
The flux is calculated at steady state when current is present for the iontophoresis experiments.

[2] = Conductivity of donor solution; assay type: physicochemical
[3] = donor solution for iontophoresis, donor pH 5.5, 50 mM HEPES

| Molecule | Lagtime [1] [min] | Flux [1] [mg/cm^2-hr] | Conductivity [2, 3] [mS/cm] | further results |
| --- | --- | --- | --- | --- |
| CN1CCCC1c1cccnc1 (centres unmarked) [Base, nicotine] | – | – | – | Nicotine permeation, iontophoresis versus passive delivery ([1]; both conditions evaluated (pH 5.5 and pH 8 buffers), FIGS. 1 and 2): Iontophoresis enhanced nicotine permeation compared to passive nicotine delivery; Conductivity ([2]; donor solution for passive permeation, donor pH 8): 4.73 mS/cm; Passive transport of nicotine, pH 8 versus pH 5.5 (non-ionized form at pH 8 compared to monocationic form at pH 5.5): higher at pH 8; Lagtime (passive permeation, donor pH 8): 87 min; Flux (passive permeation, donor pH 8, 1% nicotine, human skin): 0.1053 mg/cm^2-hr |
| CN1CCCC1c1cccnc1.O=C(O)C(O)C(O)C(=O)O (centres unmarked) [Bitartrate, nicotine bitartrate] | 10 | 0.2073 | 16.3 | Iontophoretic flux of nicotine versus passive delivery of nicotine base [1]: less than the flux from the passive delivery of nicotine base at pH 8; Flux of nicotine after termination of current [1]: decreased sharply; Flux of nicotine, 50 mM HEPES buffer versus 500 mM citrate buffer ([1]; iontophoresis, 50 mM HEPES buffer pH 5.5): higher than the nicotine flux from a 500 mM citrate buffer; Conductivity of donor solution ([2]; in 50 mM HEPES buffer, pH 5.5): 16300 μmhos/cm; Conductivity of donor solution ([2]; in 500 mM citrate buffer): 66400 μmhos/cm |
| CN1CCCC1c1cccnc1.O=C(O)CC(O)(CC(=O)O)C(=O)O [Citrate, nicotine citrate] | 9 | 0.332 | 13.3 | Flux of nicotine, iontophoresis of salt versus passive permeation of nicotine base [1]: increased; Lagtime during iontophoresis versus passive permeation of nicotine base [1]: reduced |
| Br.Br.CN1CCCC1c1cccnc1 (centres unmarked) [HBr] | 63 | 0.2771 | 25.9 | – |
| CN1CCC[C@H]1c1cccnc1 [HCl, nicotinium dihydrochloride] | 22 | 0.2236 | 15.4 | Flux of nicotine after termination of current [1]: decreased sharply; Conductivity of donor solution ([2]; in 50 mM HEPES buffer, pH 5.5): 15400 μmhos/cm |
| CN1CCCC1c1cccnc1.O=C(O)/C=C\C(=O)O (centres unmarked) [Maleate, nicotine maleate] | 4 | 0.2867 | 9.31 | Flux of nicotine, iontophoresis of salt versus passive permeation of nicotine base [1]: increased; Lagtime during iontophoresis versus passive permeation of nicotine base [1]: reduced |
| CN1CCCC1c1cccnc1.O=S(=O)(O)O.O=S(=O)(O)O (centres unmarked) [SO4] | 46 | 0.2554 | 20 | – |
| nicotine hemisulfate | – | – | – | Iontophoretic flux of nicotine versus passive delivery of nicotine base [1]: less than the flux from the passive delivery of nicotine base at pH 8 |
